Measured values from ChEMBL document CHEMBL1125892 (J Med Chem, 1991).

How the values were obtained:
[1] = target: T1, D(2) dopamine receptor (Rattus norvegicus, UniProt P61169); test: Binding affinity against dopamine receptor D2 in rat corpus striatal tissue using [3H]spiperone as radioligand; type: tissue-based, Striatum
[2] = target: T2, Adrenergic receptor alpha-1 (Rattus norvegicus, UniProt P15823+P23944+P43140); test: Binding affinity against alpha-1 adrenergic receptor in rat cerebral cortex tissue using [3H]WB-4101 as radioligand; type: tissue-based
T2 sequence (P15823 whole entry): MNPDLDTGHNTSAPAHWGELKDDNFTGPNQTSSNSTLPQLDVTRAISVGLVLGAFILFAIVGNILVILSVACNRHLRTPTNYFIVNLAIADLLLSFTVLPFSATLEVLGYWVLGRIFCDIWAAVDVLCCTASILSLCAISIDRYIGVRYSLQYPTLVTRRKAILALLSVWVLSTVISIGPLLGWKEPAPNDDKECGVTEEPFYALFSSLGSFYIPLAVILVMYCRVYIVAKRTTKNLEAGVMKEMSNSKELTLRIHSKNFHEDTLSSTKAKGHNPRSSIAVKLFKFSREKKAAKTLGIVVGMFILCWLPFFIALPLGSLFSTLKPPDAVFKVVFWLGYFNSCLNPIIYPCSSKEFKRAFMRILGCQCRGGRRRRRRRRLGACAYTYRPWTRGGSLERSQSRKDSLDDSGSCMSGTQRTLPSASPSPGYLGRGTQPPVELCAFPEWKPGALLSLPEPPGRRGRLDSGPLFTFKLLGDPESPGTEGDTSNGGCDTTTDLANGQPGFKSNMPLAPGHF
T2 sequence (P23944 whole entry): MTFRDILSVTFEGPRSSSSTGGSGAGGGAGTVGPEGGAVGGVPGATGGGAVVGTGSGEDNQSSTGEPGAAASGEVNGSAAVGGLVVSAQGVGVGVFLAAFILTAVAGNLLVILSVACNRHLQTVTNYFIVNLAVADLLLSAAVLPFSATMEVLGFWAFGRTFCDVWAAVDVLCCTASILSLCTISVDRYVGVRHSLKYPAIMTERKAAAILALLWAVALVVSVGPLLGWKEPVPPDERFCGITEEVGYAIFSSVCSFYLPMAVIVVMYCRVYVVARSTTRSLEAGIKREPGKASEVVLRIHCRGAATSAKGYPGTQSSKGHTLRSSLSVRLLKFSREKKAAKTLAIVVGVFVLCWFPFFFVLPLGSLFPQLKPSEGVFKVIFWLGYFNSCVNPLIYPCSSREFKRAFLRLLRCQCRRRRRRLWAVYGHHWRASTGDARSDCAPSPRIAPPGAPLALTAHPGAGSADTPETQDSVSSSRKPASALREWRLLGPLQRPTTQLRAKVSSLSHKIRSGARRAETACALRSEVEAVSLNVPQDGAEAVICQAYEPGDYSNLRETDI
T2 sequence (P43140 whole entry): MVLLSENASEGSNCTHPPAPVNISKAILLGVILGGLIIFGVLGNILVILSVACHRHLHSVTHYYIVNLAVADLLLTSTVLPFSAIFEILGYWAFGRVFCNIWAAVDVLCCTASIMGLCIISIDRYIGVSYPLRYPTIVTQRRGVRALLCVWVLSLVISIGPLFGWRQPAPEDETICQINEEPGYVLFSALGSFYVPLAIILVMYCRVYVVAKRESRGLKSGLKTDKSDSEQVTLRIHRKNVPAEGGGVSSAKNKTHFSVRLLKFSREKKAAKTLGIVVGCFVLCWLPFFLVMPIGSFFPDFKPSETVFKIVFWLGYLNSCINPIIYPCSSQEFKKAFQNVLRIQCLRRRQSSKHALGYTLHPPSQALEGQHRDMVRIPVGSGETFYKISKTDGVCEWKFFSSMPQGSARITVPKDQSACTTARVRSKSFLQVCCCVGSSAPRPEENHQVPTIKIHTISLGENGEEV

[3] = organism: Rattus norvegicus; test: Selectivity ratio of IC50 for dopamine receptor and Alpha-1 receptor
[4] = target: T3, 5-hydroxytryptamine receptor 1A (Rattus norvegicus, UniProt P19327); test: Binding affinity against 5-hydroxytryptamine 1A receptor using in rat hippocampal tissue using [3H]8-OH-DPAT as radioligand; type: tissue-based, Hippocampus
T3 sequence (P19327 whole entry): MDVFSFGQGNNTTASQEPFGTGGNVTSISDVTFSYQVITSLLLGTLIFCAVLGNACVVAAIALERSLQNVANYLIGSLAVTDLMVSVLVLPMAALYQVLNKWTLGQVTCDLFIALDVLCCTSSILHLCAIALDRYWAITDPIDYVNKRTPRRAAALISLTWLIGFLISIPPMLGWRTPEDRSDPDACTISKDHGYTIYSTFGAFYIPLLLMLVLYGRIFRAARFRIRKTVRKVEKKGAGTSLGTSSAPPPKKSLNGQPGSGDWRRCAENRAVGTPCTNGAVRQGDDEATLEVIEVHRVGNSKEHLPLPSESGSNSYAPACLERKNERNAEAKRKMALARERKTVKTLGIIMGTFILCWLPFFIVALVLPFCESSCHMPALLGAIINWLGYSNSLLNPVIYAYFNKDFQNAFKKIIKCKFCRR

[5] = system: Rattus norvegicus; test: In vivo inhibition of conditional avoidance response in rats(CAR), after po administration; type: functional
[6] = target: T3, 5-hydroxytryptamine receptor 1A; test: Displacement of [3H]8-OH-DPAT from rat hippocampal 5-hydroxytryptamine 1A receptor; IA-Inactive; type: tissue-based, Hippocampus
[7] = target: T4, 5-hydroxytryptamine receptor 2A (Rattus norvegicus, UniProt P14842); test: Binding affinity against rat 5-hydroxytryptamine 2 receptor in rat cerebral cortex tissue using [3H]spiperone as radioligand; IA-Inactive; type: tissue-based
T4 sequence (P14842 whole entry): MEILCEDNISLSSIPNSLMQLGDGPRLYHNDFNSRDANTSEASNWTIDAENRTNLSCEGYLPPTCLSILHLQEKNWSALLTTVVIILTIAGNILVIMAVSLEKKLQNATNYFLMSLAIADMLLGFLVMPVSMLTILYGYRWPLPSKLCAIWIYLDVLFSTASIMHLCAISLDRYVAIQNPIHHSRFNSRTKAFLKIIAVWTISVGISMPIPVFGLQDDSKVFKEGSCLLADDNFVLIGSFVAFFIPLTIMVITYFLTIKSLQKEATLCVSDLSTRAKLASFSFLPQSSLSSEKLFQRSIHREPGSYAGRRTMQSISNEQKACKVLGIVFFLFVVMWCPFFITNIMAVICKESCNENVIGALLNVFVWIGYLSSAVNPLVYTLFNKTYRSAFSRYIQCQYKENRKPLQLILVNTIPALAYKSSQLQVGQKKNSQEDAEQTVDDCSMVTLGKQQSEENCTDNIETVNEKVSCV

[8] = target: T1, D(2) dopamine receptor
[9] = system: Rattus norvegicus; test: In vivo inhibition of conditional avoidance response in rats(CAR), after sc administration; type: functional
[10] = target: T1, D(2) dopamine receptor; test: Binding affinity against Dopamine receptor D2 receptor of rat corpus striatal tissue with [3H]spiperone
[11] = system: Rattus norvegicus; test: In vivo inhibition of conditional avoidance response in rats(CAR), after im administration; type: functional
[12] = target: T4, 5-hydroxytryptamine receptor 2A; test: Binding affinity against rat 5-hydroxytryptamine 2 receptor in rat cerebral cortex tissue using [3H]spiperone as radioligand; type: tissue-based
[13] = target: T3, 5-hydroxytryptamine receptor 1A; test: Binding affinity against 5-hydroxytryptamine 1A receptor of rat hippocampal tissue with [3H]5-HT; type: tissue-based, Hippocampus

T1 sequence (P61169 whole entry): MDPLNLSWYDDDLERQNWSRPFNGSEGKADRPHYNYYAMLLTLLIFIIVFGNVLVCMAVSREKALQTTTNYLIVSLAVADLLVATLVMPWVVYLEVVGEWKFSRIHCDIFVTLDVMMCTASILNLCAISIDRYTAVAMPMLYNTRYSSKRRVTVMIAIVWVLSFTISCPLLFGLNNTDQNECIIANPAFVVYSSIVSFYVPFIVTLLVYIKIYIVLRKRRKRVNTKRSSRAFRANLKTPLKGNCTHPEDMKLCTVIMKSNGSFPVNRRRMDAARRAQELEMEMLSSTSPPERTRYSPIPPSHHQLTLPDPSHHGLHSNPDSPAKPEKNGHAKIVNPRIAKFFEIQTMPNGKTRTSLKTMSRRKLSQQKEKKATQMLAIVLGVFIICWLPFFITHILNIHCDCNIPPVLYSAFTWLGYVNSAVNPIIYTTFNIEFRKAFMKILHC

| Compound | IC50 [4] | IC50 [6] | IC50 [7] | IC50 [8] | other results |
| --- | --- | --- | --- | --- | --- |
| O=C1CC2(CCCC2)CC(=O)N1CCC(O)CN1CCN(c2nsc3ccccc23)CC1 (stereo not drawn) | 24.9 nM | – | – | – | IC50 [1]: 111 nM; IC50 [2]: 8.3 nM; Ratio [3]: 13 |
| O=C1CC2(CCCC2)CC(=O)N1CCC(O)CN1CCN(c2n[s+]([O-])c3ccccc23)CC1 (stereo not drawn) | – | Not Active | Not Active | Not Active | ED50 [5]: > 50 mg/kg |
| O=C1CC2(CCC(O)C2)CC(=O)N1CCCCN1CCN(c2n[s+]([O-])c3ccccc23)CC1 (stereo not drawn) | – | Not Active | Not Active | Not Active | ED50 [9]: > 100 mg/kg |
| O=C1CC2(CCCC2)CC(=O)N1CCCCN1CCN(c2n[s+]([O-])c3ccccc23)CC1 (stereo not drawn) | – | Not Active | Not Active | Not Active | ED50 [5]: 11 mg/kg |
| O=C1CC2(CCCC2)CC(=O)N1CCCCN1CCN(c2nsc3ccccc23)CC1 [TIOSPIRONE] | – | – | – | – | IC50 [10]: 8.4 nM; ED50 [11]: 0.35 mg/kg |
| O=C1CCC2(C1)CC(=O)N(CCCCN1CCN(c3nsc4ccccc34)CC1)C(=O)C2 | 2.99 nM | – | – | – | IC50 [1]: 68.3 nM; IC50 [2]: 1.3 nM; Ratio [3]: 52; ED50 [9]: > 60.3 mg/kg |
| O=C1CC2(CCCC2)C(C(=O)NCCCCN2CCN(c3nsc4ccccc34)CC2)O1 (stereo not drawn) | 98.7 nM | – | – | – | IC50 [1]: 150 nM; IC50 [12]: 4.5 nM; IC50 [2]: 2.5 nM; Ratio [3]: 60 |
| O=C1CCC2(C1)CC(=O)N(CCCCN1CCN(c3n[s+]([O-])c4ccccc34)CC1)C(=O)C2 (stereo not drawn) | – | Not Active | Not Active | Not Active | ED50 [9]: > 100 mg/kg |
| O=C1CN(C2=NS(=O)(=O)c3ccccc32)CCN1 | – | Not Active | Not Active | Not Active | ED50 [9]: > 50 mg/kg |
| O=C1CC2(CCCC2)CC(=O)N1CCCCN1CCN(C2=NS(=O)(=O)c3ccccc32)CC1 | – | Not Active | Not Active | Not Active | ED50 [11]: > 10 mg/kg |
| COc1cccc2snc(N3CCNCC3)c12 | – | – | Not Active | Not Active | IC50 [13]: 121 nM |
| O=C1CC2(CCC(O)C2)CC(=O)N1CCCCN1CCN(c2nsc3ccccc23)CC1 (stereo not drawn) | 3.75 nM | – | – | – | IC50 [1]: 52.5 nM; IC50 [2]: 0.876 nM; Ratio [3]: 60 |
| COc1cccc2c(N3CCNCC3)nsc12 | – | Not Active | Not Active | Not Active | – |
| O=C1CC2(CCC(O)C2)CC(=O)N1CCCCN1CCN(C2=NS(=O)(=O)c3ccccc32)CC1 (stereo not drawn) | – | Not Active | Not Active | Not Active | ED50 [9]: > 100 mg/kg |
| O=S1(=O)N=C(N2CCNCC2)c2ccccc21 [BENZISOTHIAZOLE-3YL-PIPERAZINE SULFOXIDE] | – | Not Active | Not Active | Not Active | ED50 [5]: > 100 mg/kg |
| [O-][s+]1nc(N2CCNCC2)c2ccccc21 (stereo not drawn) [BITP-SULFONE] | – | Not Active | Not Active | Not Active | ED50 [5]: > 100 mg/kg |
| O=C1CC2(CCC(O)C2)CC(=O)N1CCC(O)CN1CCN(c2nsc3ccccc23)CC1 (stereo not drawn) | 14.2 nM | – | – | – | IC50 [1]: 491 nM; IC50 [2]: 7.15 nM; Ratio [3]: 69 |
| O=C1CC2(CCCC2)C(O)C(=O)N1CCCCN1CCN(c2n[s+]([O-])c3ccccc23)CC1 (stereo not drawn) | – | Not Active | Not Active | Not Active | – |
| c1ccc2c(N3CCNCC3)nsc2c1 [BENZISOTHIAZOLE-3-YL-PIPERAZINE] | 190 nM | – | – | Not Active | ED50 [5]: > 100 mg/kg |
| O=C1CC2(CCCC2)C(O)C(=O)N1CCCCN1CCN(C2=NS(=O)(=O)c3ccccc32)CC1 (stereo not drawn) | – | Not Active | Not Active | Not Active | – |
| O=C1CC2(CCCC2)C(O)C(=O)N1CCCCN1CCN(c2nsc3ccccc23)CC1 (stereo not drawn) | 5.06 nM | – | – | – | ED50 [11]: 1 mg/kg |
| COc1ccc2c(N3CCNCC3)nsc2c1 | – | Not Active | Not Active | Not Active | – |
| COc1ccc2snc(N3CCNCC3)c2c1 | – | – | Not Active | Not Active | IC50 [13]: 20.9 nM |
